From ChEMBL document CHEMBL5241112, “Insights into the recent progress in the medicinal chemistry of pyranopyrimidine analogs” (RSC Med Chem, 2022) come the findings set out here.

Each structure is given as a SMILES string. ≈ marks a conversion by molar mass, not a printed value.

One may read the MIC as the smallest concentration in the dilution series that meets the test's criterion for growth inhibition. Broadly, the inhibition is the drop in the measured response relative to a control, in per cent. What is called IC50 is the point on the concentration scale where inhibition reaches its midpoint. As a reminder, the MBC is the lowest tested concentration that kills the bacteria rather than only halting them.

The subject of assay [1] is Aspergillus fumigatus. As to the kind of experiment: Antifungal activity against Aspergillus fumigatus MTCC 227 assessed as fungal growth inhibition by broth microdilution method. The class given is functional. Background: In broth dilution the organism is exposed to a series of concentrations in liquid medium.
The subject of assay [2] is Mycobacterium tuberculosis. As to the kind of experiment: Antitubercular activity against Mycobacterium tuberculosis H37Rv assessed as bacterial growth inhibition at 100 ug/ml. The class given is functional.
The subject of assay [3] is Mycobacterium tuberculosis. As to the kind of experiment: Antitubercular activity against Mycobacterium tuberculosis H37Rv assessed as bacterial growth inhibition at 250 ug/ml. The class given is functional.
The test system of another assay is Clostridium tetani. As to the kind of experiment: Antibacterial activity against Clostridium tetani MTCC 449 assessed as bacterial growth inhibition by broth microdilution method. The class given is functional.
The test system of the next assay is Salmonella typhimurium. As to the kind of experiment: Antibacterial activity against Salmonella typhimurium MTCC 98 assessed as bacterial growth inhibition by broth microdilution method. The class given is functional, Salmonella enterica subsp. enterica serovar Typhimurium. The note with it: Salmonella enterica.
Assay [4] has as its system Escherichia coli. As to the kind of experiment: Antibacterial activity against Escherichia coli MTCC 443 assessed as bacterial growth inhibition by broth microdilution method. The class given is functional.
In the next assay the test system is Penicillium italicum. As to the kind of experiment: microbe, parasite or virus in culture. The class given is functional. The note with it: CECT 2294, dose 50 mg/ml, time 24 hrs, read-out: DIZ.
The test system of assay [5] is Aspergillus fumigatus. As to the kind of experiment: microbe, parasite or virus in culture. The note with it: ATCC204305, dose 50 mg/ml, time 24 hrs, read-out: DIZ. The class given is functional.
Assay [6] has as its system Staphylococcus aureus. As to the kind of experiment: Antibacterial activity against Staphylococcus aureus NCTC-7447 assessed as diameter of inhibition zone incubated for 24 hrs by disc diffusion method. The class given is functional.
Another assay deals with Vibrio cholerae. As to the kind of experiment: Antibacterial activity against Vibrio cholerae MTCC 3906 assessed as bacterial growth inhibition by broth microdilution method. The class given is functional.
The test system of a further assay is Bacillus cereus. As to the kind of experiment: Antibacterial activity against Bacillus cereus ATCC-14579 assessed as diameter of inhibition zone incubated for 24 hrs by disc diffusion method. The class given is functional. In general terms: In agar diffusion tests the substance spreads into inoculated agar from a disc or well.
The subject of assay [7] is Serratia marcescens. As to the kind of experiment: Antibacterial activity against Serratia marcescens assessed as diameter of inhibition zone by disc diffusion method. The class given is functional.
In assay [8] the test system is Bacillus subtilis. As to the kind of experiment: Antibacterial activity against Bacillus subtilis ATCC 6633 assessed as diameter of inhibition zone incubated for 24 hrs by disc diffusion assay. The class given is functional.
Assay [9] concerns Serratia marcescens. As to the kind of experiment: Antibacterial activity against Serratia marcescens IMRU-70 assessed as diameter of inhibition zone incubated for 24 hrs by disc diffusion method. The class given is functional.
In a further assay the test system is Proteus mirabilis. As to the kind of experiment: Antibacterial activity against Proteus mirabilis NTCC-289 assessed as diameter of inhibition zone incubated for 24 hrs by disc diffusion method. The class given is functional.
The subject of assay [10] is Bacillus subtilis. As to the kind of experiment: Antibacterial activity against Bacillus subtilis ATCC 6633 assessed as inhibition of bacterial growth incubated for 24 hrs by broth macrodilution method. The class given is functional.
Assay [11] relates to Staphylococcus aureus. As to the kind of experiment: Antibacterial activity against Staphylococcus aureus assessed as inhibition of bacterial growth. The class given is functional.
The target of a further assay is Alpha-glucosidase (Saccharomyces cerevisiae S288c, UniProt P53341+P38158+P07265). As to the kind of experiment: Inhibition of Saccharomyces cerevisiae alpha-glucosidase assessed as decrease in release of p-nitrophenol using pNPG as substrate incubated for 10 mins by spectroscopic analysis. The class given is protein assay.
Assay [12] concerns the target Alpha-glucosidase (Mus musculus). As to the kind of experiment: Inhibition of mouse alpha-glucosidase assessed as decrease in release of p-nitrophenol using pNPG as substrate preincubated for 10 mins followed by substrate addition and measured after 30 mins by spectroscopic analysis.
Assay [13] has as its system Staphylococcus aureus. As to the kind of experiment: Antibacterial activity against Staphylococcus aureus MTCC 96 assessed as minimum bactericidal concentration. The class given is functional.
The next assay relates to Pseudomonas aeruginosa. As to the kind of experiment: Antibacterial activity against Pseudomonas aeruginosa MTCC 2453 assessed as bacterial growth inhibition. The class given is functional.
For assay [14], the system named is Staphylococcus aureus. As to the kind of experiment: Antibacterial activity against Staphylococcus aureus MLS-16 MTCC 2940 assessed as minimum bactericidal concentration. The class given is functional.
Assay [15] concerns Bacillus subtilis. As to the kind of experiment: Antibacterial activity against Bacillus subtilis MTCC 121 assessed as minimum bactericidal concentration. The class given is functional.
Assay [16] relates to Bacillus subtilis. As to the kind of experiment: Antibacterial activity against Bacillus subtilis MTCC 121 assessed as bacterial growth inhibition. The class given is functional.
A further assay has as its system Raoultella planticola. As to the kind of experiment: Antibacterial activity against Raoultella planticola MTCC 530 assessed as bacterial growth inhibition. The class given is functional. The note with it: Klebsiella planticola.
Assay [17] relates to Staphylococcus aureus. As to the kind of experiment: Antibacterial activity against Staphylococcus aureus MLS-16 MTCC 2940 assessed as bacterial growth inhibition. The class given is functional.
The test system of assay [18] is Escherichia coli. As to the kind of experiment: Antibacterial activity against Escherichia coli MTCC 739 assessed as bacterial growth inhibition. The class given is functional.
Another assay relates to Micrococcus luteus. As to the kind of experiment: Antibacterial activity against Micrococcus luteus MTCC 2470 assessed as bacterial growth inhibition. The class given is functional.
The nature of assay [19]: Inhibition of Escherichia coli topoisomerase 4 assessed as reduction in decatenation.
For assay [20], the system named is Staphylococcus aureus. As to the kind of experiment: Antibacterial activity against Staphylococcus aureus ATCC6538-P assessed as diameter of inhibition zone at 50 mg/ml incubated for 24 hrs by paper disk diffusion method. The class given is functional. The note with it: read-out: DIZ.
Assay [21] relates to Streptococcus pneumoniae. As to the kind of experiment: Antibacterial activity against Streptococcus pneumoniae ATCC BAA-255/R6 assessed as diameter of inhibition zone at 50 mg/ml incubated for 24 hrs by paper disk diffusion method. The note with it: read-out: DIZ. The class given is functional.
In assay [22] the test system is Streptococcus pneumoniae. As to the kind of experiment: Antibacterial activity against Streptococcus pneumoniae ATCC BAA-255/R6 assessed as inhibition of bacterial growth incubated for 24 hrs by disk diffusion method. The class given is functional.
For the next assay, the system named is Plasmodium falciparum. As to the kind of experiment: microbe, parasite or virus in culture.

In the case of `CCOC(=O)C1=C(N)Oc2c(c(=O)n(C)c(=O)n2C)C1c1c(C)nn(-c2ccccc2)c1-n1ccnc1` (stereo not given), the MIC in the assay with Aspergillus fumigatus [1] amounted to 200 µg/mL (≈ 397 µM); with Clostridium tetani, 100 µg/mL (≈ 199 µM); in the assay on Salmonella typhimurium, 100 µg/mL (≈ 199 µM); in the assay with Escherichia coli [4], 62.5 µg/mL (≈ 124 µM). In addition, the inhibition at 100 µg/mL in [2] turned out to be 30%. In addition, the inhibition at 250 µg/mL in [3] was found to be 84%.
In the case of `Clc1ccc(COC(Cn2ccnc2)c2ccc(Cl)cc2Cl)c(Cl)c1` (stereo not given) [MICONAZOLE NITRATE], the zone of inhibition at 50000 µg/mL in the assay with Penicillium italicum came to 17 mm; in the assay with Aspergillus fumigatus [5], 19 mm.
Take `CC1(C)S[C@@H]2[C@H](NC(=O)[C@H](N)c3ccccc3)C(=O)N2[C@H]1C(=O)O` [AMPICILLIN]: the “diameter of the inhibition zone (DIZ)” value in the assay on Staphylococcus aureus [6] was determined as 25 mm; with Bacillus cereus it was 25 mm; in the assay with Serratia marcescens [7], 25 mm; in the assay with Bacillus subtilis [8] it was 32.4 mm; in the assay on Serratia marcescens [9], 25 mm; in the assay with Proteus mirabilis it was 25 mm. For the same compound, the MIC amounted to 100 µg/mL (≈ 286 µM) with Vibrio cholerae, 100 µg/mL (≈ 286 µM) with Salmonella typhimurium, 0.45 µg/mL (≈ 1.29 µM) with Bacillus subtilis [10] and 250 µg/mL (≈ 715 µM) with Staphylococcus aureus [11].
With `COc1cc(/C=C/C(=O)C2=C(/C=C/c3ccc(O)c(OC)c3)Oc3[nH]c(=O)[nH]c(=O)c3C2c2c(Cl)cccc2Cl)ccc1O` (stereo not given), the figures for the IC50 (at Alpha-glucosidase; in [12]) were 27.6 µM and 46.04 µM, respectively.
Consider `Cc1ccc(C2c3c(Nc4ccc([N+](=O)[O-])cc4)ncnc3Oc3c2c(=O)oc2ccccc32)cc1` (stereo not given), for which the MBC in the assay on Staphylococcus aureus [13], in the assay on Staphylococcus aureus [14] and with Bacillus subtilis [15] was 15.6 µg/mL (≈ 32.6 µM) in each case. In addition, the MIC in the assay on Pseudomonas aeruginosa, in the assay with Bacillus subtilis [16], in the assay on Raoultella planticola, in the assay on Staphylococcus aureus [17], in the assay on Escherichia coli [18] and in the assay on Micrococcus luteus was 15.6 µg/mL (≈ 32.6 µM) throughout.
Consider `Nc1nc(=O)[nH]c2c1C(c1ccc(Cl)cc1)C=C(c1cc3ccccc3oc1=O)O2` (stereo not given), for which, in [19], the IC50 came out at 0.237 µM. The zone of inhibition at 50000 µg/mL in the assay with Staphylococcus aureus [20] came to 18 mm; in the assay on Aspergillus fumigatus [5], 10 mm; in the assay with Streptococcus pneumoniae [21] it was 10 mm. In the assay on Streptococcus pneumoniae [22], the MIC was determined as 7.8 µg/mL (≈ 18.6 µM).
Regarding `Cc1nn(-c2ccccc2)c(-n2ccnc2)c1C1C(C#N)=C(N)Oc2[nH]c(=O)[nH]c(=O)c21` (stereo not given), the minimum inhibitory concentration (MIC) in the assay with Vibrio cholerae came out at 662 µg/mL (≈ 1550 µM); in the assay on Aspergillus fumigatus [1], 200 µg/mL (≈ 467 µM); in the assay with Clostridium tetani it was 100 µg/mL (≈ 233 µM). In the assay on Plasmodium falciparum, this compound yielded a half-inhibitory concentration (IC50) of 0.97 µg/mL (≈ 2.26 µM). Also, in assay [2], the inhibition at 100 µg/mL was 92%. For the same compound, the inhibition at 250 µg/mL in assay [3] stood at 95%.
